Laboratory results from ChEMBL document CHEMBL4765442, “Anti-Giardia Drug Discovery: Current Status and Gut Feelings” (J Med Chem, 2020).
Values after ≈ are worked out from the molar mass of the structure shown.

Assays:
Giardia intestinalis [1] = test: Antigiardial activity against Giardia intestinalis IMSS:0696:1 incubated for 48 hrs followed by wash out by hemocytometric counting method; format: functional, organism-based; conditions: Giardia duodenalis, IMSS:0696:1, 48 h
Giardia intestinalis [2] = test: Antigiardial activity against metronidazole-resistant Giardia lamblia 713-M3 incubated for 48 hrs; format: functional, organism-based; conditions: Giardia duodenalis, 713-M3, 48 h
Giardia intestinalis [3] = test: Antigiardial activity against Giardia lamblia WBC6 incubated for 48 hrs; format: functional, organism-based; conditions: Giardia duodenalis, WBC6, 48 h
Giardia intestinalis [4] = test: Antigiardial activity against Giardia lamblia 713 incubated for 48 hrs; format: functional, organism-based; conditions: Giardia duodenalis, 713, 48 h
Giardia intestinalis [5] = test: Antigiardial activity against Giardia intestinalis WB incubated for 48 hrs by hemocytometric counting method; format: functional, organism-based; conditions: Giardia duodenalis
Giardia intestinalis [6] = test: Antigiardial activity against Giardia intestinalis N1-INP incubated for 48 hrs followed by hemocytometric counting method; format: functional, organism-based; conditions: Giardia duodenalis
Giardia intestinalis [7] = test: Antigiardial activity against Giardia intestinalis WB30957 incubated for 48 hrs followed by hemocytometric counting method; format: functional, organism-based; conditions: Giardia duodenalis, WB30957, 48 h
Giardia intestinalis [8] = test: Antigiardial activity against Giardia intestinalis IMSS-1090-1 incubated for 48 hrs followed by hemocytometric counting method; format: functional, organism-based; conditions: Giardia duodenalis, IMSS-1090-1, 48 h
Giardia intestinalis [9] = test: Antigiardial activity against Giardia intestinalis UNAM-0688-2 incubated for 48 hrs followed by hemocytometric counting method; format: functional, organism-based; conditions: Giardia duodenalis, UNAM-0688-2, 48 h
Giardia intestinalis [10] = test: Antigiardial activity against Giardia intestinalis BRIS/91/HEPU/1411 incubated for 48 hrs followed by compound wash out by hemocytometric counting method; format: functional, organism-based; conditions: Giardia duodenalis, BRIS/91/HEPU/1411, 48 h
Giardia intestinalis [11] = test: Antigiardial activity against Giardia duodenalis WBC6 trophozoites incubated for 72 hrs under anaerobic condition by resazurin-dye based fluorimetry; format: functional, organism-based; conditions: WBC6, 72 h
Giardia intestinalis [12] = test: Antigiardial activity against Giardia duodenalis WBC6 trophozoites incubated for 48 hrs under microaerophilic condition by methylene blue colorimetric assay; format: functional, organism-based; conditions: WBC6, 48 h
Giardia intestinalis [13] = test: Antigiardial activity against Giardia intestinalis WB ATCC 30957 incubated for 72 hrs by hemocytometric counting method; format: functional, organism-based; conditions: Giardia duodenalis, WB ATCC 30957, 72 h
Giardia intestinalis [14] = test: Antigiardial activity against Giardia duodenalis BRIS/91/HEPU/1279 incubated for 3 days followed by compound wash-out and measured after 4 days; format: functional; conditions: time 3 day
Giardia intestinalis [15] = test: Antigiardial activity against Giardia duodenalis BRIS/83/HEPU/106 incubated for 3 days followed by compound wash-out and measured after 4 days; format: functional; conditions: time 3 day
Giardia intestinalis [16] = test: Antigiardial activity against metronidazole-resistant Giardia duodenalis BRIS/83/HEPU/106-2ID10 incubated for 3 days followed by compound wash-out and measured after 4 days; format: functional; conditions: time 3 day
Giardia intestinalis [17] = test: Antigiardial activity against metronidazole-resistant Giardia duodenalis WB1B-M3 incubated for 3 days followed by compound wash-out and measured after 4 days; format: functional; conditions: time 3 day
Giardia intestinalis [18] = test: Antigiardial activity against Giardia lamblia WB incubated for 48 hrs by haemocytometric counting method; format: functional; conditions: Giardia duodenalis, read-out: LD50 (the source's name)
Giardia intestinalis [19] = test: Antigiardial activity against drug susceptible Giardia lamblia incubated for 48 hrs by haemocytometric counting method; format: functional; conditions: Giardia duodenalis, read-out: LD50 (the source's name)
Giardia intestinalis [20] = test: Antigiardial activity against nitazoxanide resistant Giardia lamblia N1-INP incubated for 48 hrs by haemocytometric counting method; format: functional; conditions: Giardia duodenalis, read-out: LD50 (the source's name)
Giardia intestinalis [21] = test: Growth inhibition of Giardia duodenalis isolate 14-03/F7 measured after 24 hrs by resazurin based assay; format: functional, organism-based; conditions: isolate 14-03/F7, 24 h

**Q.** `Cc1ncc([N+](=O)[O-])n1CCOC(=O)Nc1ccc([N+](=O)[O-])cc1` was tested. Which IC50 (Giardia intestinalis [1]) did it give?
**A.** 500 nM

**Q.** Which IC50 (Giardia intestinalis [1]) does the source give for `Cc1ncc([N+](=O)[O-])n1CC(C)OC(=O)Nc1ccc(F)cc1` (stereo not drawn) here?
**A.** 500 nM

**Q.** Which results are given for `CCOc1ccc2cc(-c3nc(C(C)(C)C)n4ccnc(N)c34)ccc2c1`?
**A.** EC50 (Giardia intestinalis [2]): 600 nM; EC50 (Giardia intestinalis [3]): 600 nM; EC50 (Giardia intestinalis [4]): 1200 nM

**Q.** Which results are given for `CSc1nc2cc(Cl)c(C(=O)Nc3ncc([N+](=O)[O-])s3)cc2n1C`?
**A.** IC50 (Giardia intestinalis [5]): 10 nM; IC50 (Giardia intestinalis [6]): 71 nM; IC50 (Giardia intestinalis [7]): 10 nM; IC50 (Giardia intestinalis [8]): 10 nM; IC50 (Giardia intestinalis [9]): 10 nM; IC50 (Giardia intestinalis [10]): 10 nM

**Q.** How did the IC50 (Giardia intestinalis [11]) turn out when `O=[N+]([O-])c1ccc(SCCCCCCO)c2nonc12` was run?
**A.** 600 nM

**Q.** And the IC50 (Giardia intestinalis [12])?
**A.** 300 nM

**Q.** How did the IC50 (Giardia intestinalis [13]) turn out when `Cc1ncc([N+](=O)[O-])n1CCNC(=O)/C=C/c1ccc([N+](=O)[O-])o1` was run?
**A.** 5600 nM

**Q.** With `CN1CC/C(=C\c2ncc([N+](=O)[O-])n2C)C1=O` as the compound, how does the MLC (Giardia intestinalis [14]) read?
**A.** 1 µM (≈ 0.236 µg/mL)

**Q.** What about the MLC (Giardia intestinalis [15]) of the same compound?
**A.** 1 µM (≈ 0.236 µg/mL)

**Q.** What about the MLC (Giardia intestinalis [16]) of the same compound?
**A.** 5 µM (≈ 1.18 µg/mL)

**Q.** And the MLC (Giardia intestinalis [17])?
**A.** 10 µM (≈ 2.36 µg/mL)

**Q.** How did the IC50 (Giardia intestinalis [1]) turn out when `Cc1ncc([N+](=O)[O-])n1CCOC(=O)Nc1ccccc1` was run?
**A.** 500 nM

**Q.** For `Cc1ncc([N+](=O)[O-])n1CC(C)OC(=O)Nc1ccccc1` (stereo not drawn), which IC50 (Giardia intestinalis [1]) is on record?
**A.** 500 nM

**Q.** With `Cc1ncc([N+](=O)[O-])n1CC(C)OC(=O)Nc1ccc([N+](=O)[O-])cc1` (stereo not drawn) as the compound, how does the IC50 (Giardia intestinalis [1]) read?
**A.** 500 nM

**Q.** With `Cc1ncc([N+](=O)[O-])n1CC(C)OC(=O)NC1CCCCC1` (stereo not drawn) as the compound, how does the IC50 (Giardia intestinalis [1]) read?
**A.** 500 nM

**Q.** `COc1ccc2[nH]c([S+]([O-])Cc3ncc(C)c(OC)c3C)nc2c1` (stereo not drawn) [OMEPRAZOLE] was tested. Which LC50 (Giardia intestinalis [18]) did it give?
**A.** 116 nM

**Q.** What about the LC50 (Giardia intestinalis [19]) of the same compound?
**A.** 116 nM

**Q.** What about the LC50 (Giardia intestinalis [20]) of the same compound?
**A.** 544 nM

**Q.** With `Cc1ncc([N+](=O)[O-])n1CCN1CCN(c2ccnc3cc(Cl)ccc23)CC1` as the compound, how does the IC50 (Giardia intestinalis [13]) read?
**A.** 970 nM

**Q.** `CCCCCCCCCCC[C@@H](C[C@@H]1OC(=O)[C@H]1CCCCCC)OC(=O)[C@H](CC(C)C)NC=O` [ORLISTAT] was tested. Which IC50 (Giardia intestinalis [21]) did it give?
**A.** 2800 nM

**Q.** With `Cc1ncc([N+](=O)[O-])n1CCOC(=O)Nc1ccc(F)cc1` as the compound, how does the IC50 (Giardia intestinalis [1]) read?
**A.** 500 nM
